For 5 compounds, EC50 and Emax results are on record in patent US20260176320A1, “MODULATORS OF G-PROTEIN COUPLED RECEPTORS” (priority 2018, published 2026).

Like-named read-outs stand apart in the source and are kept apart here.

Type in all cases: cell-based
Assay [1] addresses T1, GLP-1R (Homo sapiens, UniProt P43220). The experiment in a line: PathHunter β-arrestin assay. In outline:
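Following a 90 min agonist exposure at 37 °C in 0.2% BSA medium, β-arrestin coupling was detected by chemiluminescence after 3 h at room temperature.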

Assay [2] addresses T1, GLP-1R. The experiment in a line: HitHunter cAMP assay (GLP-1R). The following applies: cAMP; for Emax: read-out: (Emax) GLP-1R. Put shortly: (§1)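 Duplicate 22-point, 2-fold agonist titrations applied to receptor-expressing suspension cells in IBMX-containing HBSS; 30 min RT stimulation. Read: luminescent cAMP immunocompetition after O/N dark incubation.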
The target of a further assay is T2, GIP-R (Homo sapiens, UniProt P48546).
T2 sequence (P48546 22-466): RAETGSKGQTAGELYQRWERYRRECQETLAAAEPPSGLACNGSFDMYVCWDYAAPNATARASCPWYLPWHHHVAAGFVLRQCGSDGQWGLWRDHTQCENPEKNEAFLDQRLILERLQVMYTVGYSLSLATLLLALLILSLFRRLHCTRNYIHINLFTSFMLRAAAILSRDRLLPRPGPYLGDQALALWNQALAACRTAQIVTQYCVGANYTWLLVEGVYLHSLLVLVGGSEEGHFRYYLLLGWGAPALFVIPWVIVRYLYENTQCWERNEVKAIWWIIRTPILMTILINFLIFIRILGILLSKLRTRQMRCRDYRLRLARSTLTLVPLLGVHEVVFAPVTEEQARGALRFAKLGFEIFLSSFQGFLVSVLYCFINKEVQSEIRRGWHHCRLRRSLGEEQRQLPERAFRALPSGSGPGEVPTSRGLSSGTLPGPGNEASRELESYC
Nature of the assay: HitHunter cAMP assay (GIP-R). Conditions: cAMP; for Emax: read-out: (Emax) GIP-R. Put shortly:
as §1
For orientation: Cyclic AMP is a second messenger, typically raised through Gs and lowered through Gi signalling.

Setting [3] is: PathHunter β-arrestin assay, read-out: β-arrestin activity EC50.
Where [4] appears, read: Table 3, read-out: EC50 GLP-1R/nM.
Where [5] appears, read: Table 3A, read-out: EC50 GLP-1R/nM.
Where [6] appears, read: Table 3, read-out: EC50 GIP-R/nM.
[7] abbreviates: Table 3A, read-out: EC50 GIP-R/nM.

T1 sequence (P43220 24-463): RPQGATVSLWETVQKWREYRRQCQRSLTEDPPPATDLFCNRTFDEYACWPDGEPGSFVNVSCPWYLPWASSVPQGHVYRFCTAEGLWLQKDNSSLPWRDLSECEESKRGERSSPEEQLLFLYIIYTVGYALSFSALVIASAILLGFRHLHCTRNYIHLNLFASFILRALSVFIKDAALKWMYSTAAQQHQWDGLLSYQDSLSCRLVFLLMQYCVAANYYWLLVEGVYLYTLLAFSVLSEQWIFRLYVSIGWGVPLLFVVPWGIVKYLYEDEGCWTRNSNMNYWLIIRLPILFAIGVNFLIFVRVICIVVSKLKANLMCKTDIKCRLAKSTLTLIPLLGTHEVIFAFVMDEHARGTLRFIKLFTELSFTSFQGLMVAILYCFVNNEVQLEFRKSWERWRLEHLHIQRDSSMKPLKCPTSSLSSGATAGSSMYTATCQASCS

The Emax is the maximal effect, on the per cent scale that the assay sets. Consider `CCCCCCCCCCCCCCCC(=O)N[C@@H](CCC(=O)NCCCC[C@H](NC(=O)[C@H](CO)NC(=O)[C@@H]1CCCN1C(=O)[C@@H]1CCCN1C(=O)[C@@H]1CCCN1C(=O)[C@H](C)NC(=O)CNC(=O)[C@H](CO)NC(=O)[C@H](CO)NC(=O)[C@@H]1CCCN1C(=O)CNC(=O)CNC(=O)[C@H](C)NC(=O)[C@H](CC(C)C)NC(=O)[C@H](CC(C)C)NC(=O)[C@H](Cc1c[nH]c2ccccc12)NC(=O)[C@H](CC(N)=O)NC(=O)[C@@H](NC(=O)[C@H](Cc1ccccc1)NC(=O)[C@H](CCC(=O)O)NC(=O)C(C)(C)NC(=O)[C@H](C)NC(=O)[C@H](C)NC(=O)[C@H](CCC(N)=O)NC(=O)[C@H](CCCCN)NC(=O)[C@H](CC(=O)O)NC(=O)[C@H](CC(C)C)NC(=O)[C@H](Cc1ccc(O)cc1)NC(=O)[C@@H](NC(=O)[C@H](CO)NC(=O)[C@H](Cc1ccc(O)cc1)NC(=O)[C@H](CC(=O)O)NC(=O)[C@H](CO)NC(=O)[C@@H](NC(=O)[C@H](Cc1ccccc1)NC(=O)[C@@H](NC(=O)CNC(=O)[C@H](CCC(=O)O)NC(=O)CSCC(=O)NCCN1C(=O)CC[C@@H]1CO)[C@@H](C)O)[C@@H](C)O)[C@@H](C)CC)C(C)C)C(N)=O)C(=O)O` [Compound 43], for which the EC50 at GLP-1R [1] is over 1000 nM; on GLP-1R [2] (EC50 GLP-1R/nM, Table 3), 0.1 to 1 nM; on GLP-1R [2] (EC50 GLP-1R/nM, Table 3A) it was 0.1 to 1 nM; at GIP-R (EC50 GIP-R/nM, Table 3) it was 1 to 10 nM; at GIP-R (EC50 GIP-R/nM, Table 3A) it was 1 to 10 nM. The Emax on GLP-1R [2] (Table 3) lay within 93 to 97%; at GLP-1R [2] (Table 3A), 93 to 97%; on GIP-R (Table 3) it was 60 to 73%; at GIP-R (Table 3A), 60 to 73%.
Regarding `CC[C@H](C)[C@H](NC(=O)[C@H](CO)NC(=O)[C@H](Cc1ccc(O)cc1)NC(=O)[C@H](CC(=O)O)NC(=O)[C@H](CO)NC(=O)[C@@H](NC(=O)[C@H](Cc1ccccc1)NC(=O)[C@@H](NC(=O)CNC(=O)[C@H](CCC(=O)O)NC(=O)CCCCNC(=O)CN1C(=O)CSC1=O)[C@@H](C)O)[C@@H](C)O)C(=O)N[C@@H](Cc1ccc(O)cc1)C(=O)N[C@@H](CC(C)C)C(=O)N[C@@H](CC(=O)O)C(=O)N[C@@H](CCCCN)C(=O)N[C@@H](CCC(N)=O)C(=O)N[C@@H](C)C(=O)N[C@@H](C)C(=O)NC(C)(C)C(=O)N[C@@H](CCC(=O)O)C(=O)N[C@@H](Cc1ccccc1)C(=O)N[C@H](C(=O)N[C@@H](CC(N)=O)C(=O)N[C@@H](Cc1c[nH]c2ccccc12)C(=O)N[C@@H](CC(C)C)C(=O)N[C@@H](CC(C)C)C(=O)N[C@@H](C)C(=O)NCC(=O)NCC(=O)N1CCC[C@H]1C(=O)N[C@@H](CO)C(=O)N[C@@H](CO)C(=O)NCC(=O)N[C@@H](C)C(=O)N1CCC[C@H]1C(=O)N1CCC[C@H]1C(=O)N1CCC[C@H]1C(=O)N[C@@H](CO)C(=O)N[C@@H](CCCCN)C(N)=O)C(C)C` [Compound 177], the EC50 on GLP-1R [1] (setting [3]) was over 1000 nM; on GLP-1R [2] (setting [4]), 1 to 10 nM; on GLP-1R [2] (setting [5]), 1 to 10 nM; at GIP-R (setting [6]), over 1000 nM; on GIP-R (setting [7]), over 1000 nM. Moreover, the Emax at GLP-1R [2] (Table 3) and at GLP-1R [2] (Table 3A) was 96% throughout. The maximal response (Emax) at 1 µM on GIP-R (read-out: (Emax) GIP-R at 1 μM, Table 3, at 1 μM) was determined as 9%.
As for `CCCCCCCCCCCCCCCC(=O)N[C@@H](CCC(=O)NCCCC[C@H](NC(=O)[C@H](CO)NC(=O)[C@@H]1CCCN1C(=O)[C@@H]1CCCN1C(=O)[C@@H]1CCCN1C(=O)[C@H](C)NC(=O)CNC(=O)[C@H](CO)NC(=O)[C@H](CO)NC(=O)[C@@H]1CCCN1C(=O)CNC(=O)CNC(=O)[C@H](C)NC(=O)[C@H](CC(C)C)NC(=O)[C@H](CC(C)C)NC(=O)[C@H](Cc1c[nH]c2ccccc12)NC(=O)[C@H](CC(N)=O)NC(=O)[C@@H](NC(=O)[C@H](Cc1ccccc1)NC(=O)[C@H](CCC(=O)O)NC(=O)C(C)(C)NC(=O)[C@H](C)NC(=O)[C@H](C)NC(=O)[C@H](CCC(N)=O)NC(=O)[C@H](CCCCN)NC(=O)[C@H](CC(=O)O)NC(=O)[C@H](CC(C)C)NC(=O)[C@H](Cc1ccc(O)cc1)NC(=O)[C@@H](NC(=O)[C@H](CO)NC(=O)[C@H](Cc1ccc(O)cc1)NC(=O)[C@H](CC(=O)O)NC(=O)[C@H](CO)NC(=O)[C@@H](NC(=O)[C@H](Cc1ccccc1)NC(=O)[C@@H](NC(=O)CNC(=O)[C@H](CCC(=O)O)NC(=O)CSCC(=O)NCCN1CCSCC1=O)[C@@H](C)O)[C@@H](C)O)[C@@H](C)CC)C(C)C)C(N)=O)C(=O)O` [Compound 36], the EC50 was over 1000 nM on GLP-1R [1] (setting [3]); under 1 nM at GLP-1R [2] (setting [4]); under 1 nM at GLP-1R [2] (setting [5]); 0.1 to 10 nM at GIP-R (setting [6]); 0.1 to 10 nM at GIP-R (setting [7]). In addition, the Emax on GLP-1R [2] (Table 3) is 108%; at GLP-1R [2] (Table 3A) it was 108%; at GIP-R (Table 3), 51 to 75%; at GIP-R (Table 3A), 51 to 75%.
In the case of `CC[C@H](C)[C@H](NC(=O)[C@H](CO)NC(=O)[C@H](Cc1ccc(O)cc1)NC(=O)[C@H](CC(=O)O)NC(=O)[C@H](CO)NC(=O)[C@@H](NC(=O)[C@H](Cc1ccccc1)NC(=O)[C@@H](NC(=O)CNC(=O)[C@H](CCC(=O)O)NC(=O)CSCC(=O)NCCCCN1C(=O)CSC1=O)[C@@H](C)O)[C@@H](C)O)C(=O)N[C@@H](Cc1ccc(O)cc1)C(=O)N[C@@H](CC(C)C)C(=O)N[C@@H](CC(=O)O)C(=O)N[C@@H](CCCCN)C(=O)N[C@@H](CCC(N)=O)C(=O)N[C@@H](C)C(=O)N[C@@H](C)C(=O)NC(C)(C)C(=O)N[C@@H](CCC(=O)O)C(=O)N[C@@H](Cc1ccccc1)C(=O)N[C@H](C(=O)N[C@@H](CC(N)=O)C(=O)N[C@@H](Cc1c[nH]c2ccccc12)C(=O)N[C@@H](CC(C)C)C(=O)N[C@@H](CC(C)C)C(=O)N[C@@H](C)C(=O)NCC(=O)NCC(=O)N1CCC[C@H]1C(=O)N[C@@H](CO)C(=O)N[C@@H](CO)C(=O)NCC(=O)N[C@@H](C)C(=O)N1CCC[C@H]1C(=O)N1CCC[C@H]1C(=O)N1CCC[C@H]1C(=O)N[C@@H](CO)C(=O)N[C@@H](CCCCN)C(N)=O)C(C)C` [Compound 184], the EC50 is over 1000 nM at GLP-1R [1]; 1 to 10 nM at GLP-1R [2] (EC50 GLP-1R/nM, Table 3); 1 to 10 nM on GLP-1R [2] (EC50 GLP-1R/nM, Table 3A); 10 to 100 nM on GIP-R (EC50 GIP-R/nM, Table 3); 10 to 100 nM at GIP-R (EC50 GIP-R/nM, Table 3A). For the same compound, the maximal response (Emax) at GLP-1R [2] (Table 3) was 99%; at GLP-1R [2] (Table 3A) it was 99%; on GIP-R (Table 3) it was 43%; at GIP-R (Table 3A), 43%.
On to `CC[C@H](C)[C@H](NC(=O)[C@H](CO)NC(=O)[C@H](Cc1ccc(O)cc1)NC(=O)[C@H](CC(=O)O)NC(=O)[C@H](CO)NC(=O)[C@@H](NC(=O)[C@H](Cc1ccccc1)NC(=O)[C@@H](NC(=O)CNC(=O)[C@H](CCC(=O)O)NC(=O)CSCC(=O)NCCN1C(=O)c2cccc(Cl)c2C1=O)[C@@H](C)O)[C@@H](C)O)C(=O)N[C@@H](Cc1ccc(O)cc1)C(=O)N[C@@H](CC(C)C)C(=O)N[C@@H](CC(=O)O)C(=O)N[C@@H](CCCCN)C(=O)N[C@@H](CCC(N)=O)C(=O)N[C@@H](C)C(=O)N[C@@H](C)C(=O)NC(C)(C)C(=O)N[C@@H](CCC(=O)O)C(=O)N[C@@H](Cc1ccccc1)C(=O)N[C@H](C(=O)N[C@@H](CC(N)=O)C(=O)N[C@@H](Cc1c[nH]c2ccccc12)C(=O)N[C@@H](CC(C)C)C(=O)N[C@@H](CC(C)C)C(=O)N[C@@H](C)C(=O)NCC(=O)NCC(=O)N1CCC[C@H]1C(=O)N[C@@H](CO)C(=O)N[C@@H](CO)C(=O)NCC(=O)N[C@@H](C)C(=O)N1CCC[C@H]1C(=O)N1CCC[C@H]1C(=O)N1CCC[C@H]1C(=O)N[C@@H](CO)C(=O)N[C@@H](CCCCN)C(N)=O)C(C)C` [Compound 162], for which the EC50 on GLP-1R [1] is over 1000 nM; on GLP-1R [2] (EC50 GLP-1R/nM, Table 3) it was 10 to 100 nM; at GLP-1R [2] (EC50 GLP-1R/nM, Table 3A), 10 to 100 nM; at GIP-R (read-out: EC50 GIP-R/nM, Table 3), 0.1 to 10 nM; at GIP-R (read-out: EC50 GIP-R/nM, Table 3A), 0.1 to 10 nM. Moreover, the maximum response (Emax) on GLP-1R [2] (Table 3) lay in the range of 42 to 46%; at GLP-1R [2] (Table 3A), 42 to 46%; at GIP-R (Table 3) it was 103 to 107%; at GIP-R (Table 3A), 103 to 107%.
